Experimental data as given in patent US20060069132A1, “Azolecarboxamide herbicides” (priority 2004, published 2006).
Read-outs that look alike come from different tables or passages of the source.

Legend:
rice = experiment: Test B flooded paddy test; format: in vivo, Oryza sativa; settings: Oryza sativa, 336 h, 1000 g ai/ha, visual rating, scale 0 to 100 (0 no effect, 100 complete control), 13 to 15 days, read-out: Rice plant response rating
In short: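 Plants grow to 1- to 4-leaf stage (2–18 cm) for postemergence spraying, or to 2-leaf stage for the paddy test. Formulated compound is applied. Greenhouse holding lasts 13–15 days. Response is scored visually relative to controls, 0 no effect to 100 complete control; a dash means no result.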

cocklebur = experiment: Test B pre-/postemergence herbicide test; format: in vivo, Xanthium strumarium; settings: Xanthium strumarium; for pest or weed control at 500 g/ha: 500 g ai/ha
In short: (§1)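 Flooded paddy rice and barnyardgrass were treated at the 2-leaf stage; upland plantings received compound either on sown seed or on 1- to 4-leaf seedlings. All were kept 13–15 days in a greenhouse and scored visually, 0–100, relative to untreated plants.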

[1] = system: small flower umbrella sedge; experiment: Test B flooded paddy test; format: in vivo, Cyperus difformis; settings: Cyperus difformis, 336 h, 1000 g ai/ha, visual rating, scale 0 to 100 (0 no effect, 100 complete control), 13 to 15 days, read-out: Sedge, Umbrella plant response rating
In short: (§2)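 After treating 2-leaf paddy plants or 2–18 cm postemergence plants (1 to 4 leaves) with formulated chemical, researchers kept them in a greenhouse for 13–15 days. Effects were judged visually versus controls: 0 indicates none, 100 total control.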

wheat = experiment: Test B postemergence herbicide test; format: in vivo, Triticum aestivum; settings: Postemergence, scale 0 (no effect) to 100 (complete control)
In short: (§3)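 Visual ratings, 0 (no effect) to 100 (complete control), made versus controls after 13–15 d greenhouse. Paddy plants treated at 2-leaf stage; postemergence plants at 1- to 4-leaf stage, 2–18 cm tall.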

lambsquarters = experiment: Test B pre-/postemergence herbicide test; format: in vivo, Chenopodium album; settings: Chenopodium album, 336 h; for pest or weed control at 500 g/ha: 500 g ai/ha
In short: (§4)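 Pre: seeds sown, then sprayed. Post: 1–4-leaf plants (2–18 cm) sprayed at the same time. Paddy: flooded, treated at 2-leaf stage. Formulation: non-phytotoxic solvent with surfactant. Greenhouse 13–15 days; visual 0–100 score relative to controls.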

barnyardgrass [2] = experiment: Test B flooded paddy test; format: in vivo, Echinochloa crus-galli; settings: Echinochloa crus-galli, 336 h, 1000 g ai/ha, visual rating, scale 0 to 100 (0 no effect, 100 complete control), 13 to 15 days, read-out: Barnyardgrass plant response rating
In short: as §2

wild oat = experiment: Test B postemergence herbicide test; format: in vivo, Avena fatua; settings: Postemergence, scale 0 (no effect) to 100 (complete control)
In short: as §3

Surinam grass = experiment: Test B pre-/postemergence herbicide test; format: in vivo, Urochloa decumbens; settings: Urochloa decumbens; for pest or weed control at 500 g/ha: 500 g ai/ha
In short: as §4

morningglory = experiment: Test B pre-/postemergence herbicide test; format: in vivo, Ipomoea coccinea; settings: Ipomoea, 336 h; for pest or weed control at 500 g/ha: 500 g ai/ha
In short: as §1

large crabgrass = experiment: Test B pre-/postemergence herbicide test; format: in vivo, Digitaria sanguinalis; settings: Digitaria sanguinalis; for pest or weed control at 500 g/ha: 500 g ai/ha
In short: as §4

velvetleaf = experiment: Test B pre-/postemergence herbicide test; format: in vivo, Abutilon theophrasti; settings: Abutilon theophrasti, 336 h; for pest or weed control at 500 g/ha: 500 g ai/ha
In short: as §4

giant foxtail = experiment: Test B pre-/postemergence herbicide test; format: in vivo, Setaria faberi; settings: Setaria faberi, 336 h; for pest or weed control at 500 g/ha: 500 g ai/ha
In short: as §4

pigweed = experiment: Test B pre-/postemergence herbicide test; format: in vivo, Amaranthus retroflexus; settings: Amaranthus retroflexus, 336 h; for pest or weed control at 500 g/ha: 500 g ai/ha
In short: as §4

corn = experiment: Test B pre-/postemergence herbicide test; format: in vivo, Zea mays; settings: Zea mays
In short: as §4

barnyardgrass [3] = experiment: Test B pre-/postemergence herbicide test; format: in vivo, Echinochloa crus-galli; settings: Echinochloa crus-galli; for pest or weed control at 500 g/ha: 500 g ai/ha
In short: as §1

[4] = 500 g ai/ha, visual rating after 13 to 15 days

## CCNC(=O)c1ccc(F)c(NC(=O)c2cc(C(C)(C)C)nn2CC)c1 [Compound 2, 3-(1,1-dimethylethyl)-1-ethyl-N-[5-[(ethylamino)carbonyl]-2-fluorophenyl]-1H-pyrazole-5-carboxamide]
rice
  plant injury at 1000 g/ha: 70%
cocklebur; post-emergence, Postemergence, 125 g ai/ha, scale 0 (no effect) to 100 (complete control), read-out: Cocklebur plant response rating
  pest or weed control at 125 g/ha: 50%
cocklebur; post-emergence, Postemergence, visual rating after 13 to 15 days, scale 0 (no effect) to 100 (complete control), read-out: Plant response rating, Cocklebur
  pest or weed control at 500 g/ha: 80%
cocklebur; pre-emergence, Preemergence, scale 0 to 100, read-out: Cocklebur plant response rating
  pest or weed control at 500 g/ha: 90%
[1]
  pest or weed control at 1000 g/ha: 90%
wheat; [4]
  Plant response rating, Wheat: 20
wheat; Triticum aestivum, post-emergence, 336 h, 125 g ai/ha, read-out: Wheat plant response rating
  plant injury at 125 g/ha: 20%
lambsquarters; post-emergence, Postemergence, 125 g ai/ha, scale 0 (no effect) to 100 (complete control), read-out: Lambsquarters plant response rating
  pest or weed control at 125 g/ha: 80%
lambsquarters; post-emergence, Postemergence, visual rating after 13 to 15 days, scale 0 (no effect) to 100 (complete control), read-out: Plant response rating, Lambsquarters
  pest or weed control at 500 g/ha: 90%
lambsquarters; pre-emergence, Preemergence, scale 0 to 100, read-out: Lambsquarters plant response rating
  pest or weed control at 500 g/ha: 100%
Barnyardgrass [2]
  pest or weed control at 1000 g/ha: 90%
Wild oat; Avena fatua, post-emergence, 336 h, 125 g ai/ha, read-out: Oat, Wild plant response rating
  pest or weed control at 125 g/ha: 20%
Wild oat; [4]
  Plant response rating, Oat, Wild: 30
Surinam grass; post-emergence, Postemergence, 125 g ai/ha, scale 0 (no effect) to 100 (complete control), read-out: Surinam Grass plant response rating
  pest or weed control at 125 g/ha: 20%
Surinam grass; post-emergence, Postemergence, visual rating after 13 to 15 days, scale 0 (no effect) to 100 (complete control), read-out: Plant response rating, Surinam Grass
  pest or weed control at 500 g/ha: 50%
Surinam grass; pre-emergence, Preemergence, scale 0 to 100, read-out: Surinam Grass plant response rating
  pest or weed control at 500 g/ha: 100%
morningglory; post-emergence, Postemergence, 125 g ai/ha, scale 0 (no effect) to 100 (complete control), read-out: Morningglory plant response rating
  pest or weed control at 125 g/ha: 30%
morningglory; post-emergence, Postemergence, visual rating after 13 to 15 days, scale 0 (no effect) to 100 (complete control), read-out: Plant response rating, Morningglory
  pest or weed control at 500 g/ha: 70%
morningglory; pre-emergence, Preemergence, scale 0 to 100, read-out: Morningglory plant response rating
  pest or weed control at 500 g/ha: 90%
Large crabgrass; post-emergence, Postemergence, 125 g ai/ha, scale 0 (no effect) to 100 (complete control), read-out: Crabgrass, Large plant response rating
  pest or weed control at 125 g/ha: 20%
Large crabgrass; post-emergence, Postemergence, visual rating after 13 to 15 days, scale 0 (no effect) to 100 (complete control), read-out: Plant response rating, Crabgrass, Large
  pest or weed control at 500 g/ha: 30%
Large crabgrass; pre-emergence, Preemergence, scale 0 to 100, read-out: Crabgrass, Large plant response rating
  pest or weed control at 500 g/ha: 100%
velvetleaf; post-emergence, Postemergence, 125 g ai/ha, scale 0 (no effect) to 100 (complete control), read-out: Velvetleaf plant response rating
  pest or weed control at 125 g/ha: 20%
velvetleaf; post-emergence, Postemergence, visual rating after 13 to 15 days, scale 0 (no effect) to 100 (complete control), read-out: Plant response rating, Velvetleaf
  pest or weed control at 500 g/ha: 50%
velvetleaf; pre-emergence, Preemergence, scale 0 to 100, read-out: Velvetleaf plant response rating
  pest or weed control at 500 g/ha: 100%
Giant foxtail; post-emergence, Postemergence, 125 g ai/ha, scale 0 (no effect) to 100 (complete control), read-out: Foxtail, Giant plant response rating
  pest or weed control at 125 g/ha: 30%
Giant foxtail; post-emergence, Postemergence, visual rating after 13 to 15 days, scale 0 (no effect) to 100 (complete control), read-out: Plant response rating, Foxtail, Giant
  pest or weed control at 500 g/ha: 30%
Giant foxtail; pre-emergence, Preemergence, scale 0 to 100, read-out: Foxtail, Giant plant response rating
  pest or weed control at 500 g/ha: 100%
pigweed; post-emergence, Postemergence, 125 g ai/ha, scale 0 (no effect) to 100 (complete control), read-out: Pigweed plant response rating
  pest or weed control at 125 g/ha: 60%
pigweed; post-emergence, Postemergence, visual rating after 13 to 15 days, scale 0 (no effect) to 100 (complete control), read-out: Plant response rating, Pigweed
  pest or weed control at 500 g/ha: 70%
pigweed; pre-emergence, Preemergence, scale 0 to 100, read-out: Pigweed plant response rating
  pest or weed control at 500 g/ha: 100%
corn; post-emergence, Postemergence, 125 g ai/ha, scale 0 (no effect) to 100 (complete control), read-out: Corn plant response rating
  plant injury at 125 g/ha: 20%
corn; post-emergence, Postemergence, 500 g ai/ha, visual rating after 13 to 15 days, scale 0 (no effect) to 100 (complete control)
  Corn plant response rating (crop injury, 0 = no effect, 100 = complete kill) at 500 g/ha: 20%
corn; pre-emergence, Preemergence, 500 g ai/ha, scale 0 to 100, read-out: Corn plant response rating
  plant injury at 500 g/ha: 80%
Barnyardgrass [3]; post-emergence, Postemergence, 125 g ai/ha, scale 0 (no effect) to 100 (complete control), read-out: Barnyardgrass plant response rating
  pest or weed control at 125 g/ha: 30%
Barnyardgrass [3]; post-emergence, Postemergence, visual rating after 13 to 15 days, scale 0 (no effect) to 100 (complete control), read-out: Plant response rating, Barnyardgrass
  pest or weed control at 500 g/ha: 70%
Barnyardgrass [3]; pre-emergence, Preemergence, scale 0 to 100, read-out: Barnyardgrass plant response rating
  pest or weed control at 500 g/ha: 100%
